These results are taken from PMC12040169 (PLOS Biology, 2025).

A short description of the first data set: in vitro. Particulars: human, hela cells, % viability.
As to `O=C(O)COc1ccc(N2C(=O)C(O)=C(C(=O)c3ccccc3)C2c2cccc(F)c2)cc1` (stereo not drawn) [CBK287010], the viability at 28.5 h, 10 µM was found to be 96.8%.
Same read-out and setting: for `COCCN(Cc1cnn(C)c1)C(=O)c1ccc2oc(C)cc2c1` [CBK307059] the value was 96.6%; for `O=C(NCc1cccs1)C1(Cc2ccccc2-c2ccc(F)c(F)c2)CCOCC1` [CBK286417], 93.2%.
With `Nc1ncc(-c2cccc3ncccc23)nc1NC1CCOCC1` [CBK063852], the viability at 28.5 h, 10 µM was 101%.
As to `Nc1ncnc2c1ncn2[C@H]1C[C@@H](O)[C@@H](CO)O1` [CBK201382], the viability at 28.5 h, 10 µM was 94.9%.
On the same count and under the same terms, then `O=C1c2ccccc2C(=O)N1CCN1CCN(Cc2ccccc2)CC1` [CBK074813], with 110%; and `O=C(CCCn1ccnc1)Nc1ccc(N2CCCCC2)c(F)c1` [CBK281385], with 81.1%.
On the same count and under the same terms, for `O=C(COc1ccc(S(=O)(=O)N2CCCCC2)cc1)NCc1cccnc1` [CBK268328] the value was 97.6%.
Same read-out and setting: then `O=C(O)c1c(Br)c(Br)c(Br)c(Br)c1C(=O)NCCc1ccccc1` [CBK261702], with 90.7%; and `Cc1cccc(CN2CCCC[C@H]3CN(C(=O)c4cccs4)C[C@H]32)c1` [CBK285530], with 85.8%; and `CN(C)C(=O)CN1CCCC2(CCN(C(=O)c3cc(F)c(F)cc3F)C2)C1` (stereo not drawn) [CBK132024], with 93.5%.
For the compound `COc1ccc(C)cc1S(=O)(=O)N(CC(=O)Nc1ccccc1C)c1ccc(Cl)cc1` [CBK267995], the viability at 28.5 h, 10 µM is 90.1%.
On the same count and under the same terms, then `Cc1ccc(C(=O)Nc2c(C(=O)N3CCN(Cc4ccccc4)CC3)cnn2-c2ccccc2)cc1` [CBK263053], with 91.1%; and `CN1CCN(CCOC(=O)N2CCN(C(c3ccccc3)c3ccccc3)CC2)CC1` [CBK200419], with 89%; and `Nc1ccc2nc(-c3ccccn3)[nH]c2c1` [CBK017167], with 100%.
The same measure, in the same setting: then `O=C(O)c1ccccc1SC1CCc2ccccc2NC1=O` (stereo not drawn) [CBK286683], with 83.1%.
Still for that read-out and setting: for `COc1ccccc1N1CCN(/N=C\c2ccccc2OCC(=O)O)CC1` [CBK263173C] the value was 93.5%.
With `CC(=O)Nc1ccc(NC(=O)[C@H]2CCCC[C@H]2C(=O)O)cc1` [CBK287073], the viability at 28.5 h, 10 µM came to 99.6%.
Consider `COc1ccc(C(C)NC2CCN(c3ccccn3)CC2)cc1F` (stereo not drawn) [CBK304146], for which the viability at 28.5 h, 10 µM amounted to 86.8%.
Same read-out and setting: then `CCN1CCCC1CN(Cc1cccs1)Cc1cnc(C)n1C` (stereo not drawn) [CBK282603], with 91.5%; and `CCCn1c(C)nnc1CN(CC1CCCO1)C1CCC(C)CC1` (stereo not drawn) [CBK304485], with 92%.
Still for that read-out and setting: for `c1cncc(COc2ccnc(N3CCCN(Cc4ccc5c(c4)OCO5)CC3)n2)c1` [CBK084112] the value was 92.5%; for `O=C(CSc1ncn(-c2ccccc2)n1)Nc1cc(Cl)cc(Cl)c1` [CBK268261], 92%; for `CC(=O)c1ccc(OC(C)C)c(CSc2nc(O)cc(O)n2)c1` [CBK263446], 91.5%.
On to `CCC(CO)Nc1cncc(-c2cccc(C(F)(F)F)c2)n1` (stereo not drawn) [CBK065783], for which the viability at 28.5 h, 10 µM was found to be 99.4%.
As to `CN1CCN(C(=O)c2ccccc2NC(=O)c2ccc(C(C)(C)C)cc2)CC1` [CBK270054], the viability at 28.5 h, 10 µM stood at 93.4%.
The same measure, in the same setting: for `COc1ccc2[nH]cc(CC(=O)Nc3nc4c(OC)cccc4s3)c2c1` [CBK149279] the value was 97.8%; for `Cc1ccc(-n2cc(CN(C)CC3(C)COC3)cn2)cc1` [CBK281720], 93%; for `Cc1cccc(-n2c(N)cc(=O)nc2SC(C)C(=O)Nc2ccc(S(N)(=O)=O)cc2)c1` (stereo not drawn) [CBK266173], 99.7%.
Turning to `CCNC(=O)C1(Cc2ccccc2-c2ccccc2C)CCN(C(=O)C2CCCCC2)CC1` [CBK285717], the viability at 28.5 h, 10 µM stood at 106%.
Turning to `CN(C)CCn1ccnc1C1CCCN(C(=O)Cc2cccc(Cl)c2)C1` (stereo not drawn) [CBK307272], the viability at 28.5 h, 10 µM came to 92.3%.
Same read-out and setting: then `Cn1c2ccccc2c2nnc(SCCCC(=O)c3ccc(F)cc3)nc21` [CBK268830], with 92.8%; and `O=C(O)CSc1nc2ccccc2n1CC(=O)O` [CBK267128], with 102%; and `N=C(N)NC(=N)Nc1ccc2c(c1)OCCO2` [CBK021572C], with 84.3%.
Same read-out and setting: for `O=C(CSc1ccc2nnc(-c3ccc(F)cc3)n2n1)N1CCOCC1` [CBK287521] the value was 96.9%.
Consider `COCc1cccc(-c2ccc(C(=O)N(C)CCN(C)C)c(N(C)C)n2)c1` [CBK106091], for which the viability at 28.5 h, 10 µM is 103%.
Turning to `O=C(CC(CC(=O)c1ccc(Cl)cc1)c1ccccc1C(=O)O)c1ccc(Cl)cc1` [CBK265604], the viability at 28.5 h, 10 µM was determined as 93.6%.
Still for that read-out and setting: for `c1ncc(N2CCCC2)nc1OCCN1CCOCC1` [CBK113430] the value was 89.1%.
Take `CCOC(=O)c1ccc(COc2cccc(-c3cnc4ccccc4n3)c2)cc1` [CBK266395]: the viability at 28.5 h, 10 µM is 94.2%.
With `N#Cc1c(CN2CCCC(c3noc(C4CC4)n3)C2)cn2ccccc12` (stereo not drawn) [CBK305332], the viability at 28.5 h, 10 µM is 98.7%.
Take `COc1cc(C(c2nnnn2C2CCCCC2)N2CCN(C)CC2)cc(OC)c1OC` (stereo not drawn) [CBK142338C]: the viability at 28.5 h, 10 µM was 98.3%.
As to `CCCCC(c1cccnc1)N(C)C(=O)c1ccnc(-n2cnnc2)c1` (stereo not drawn) [CBK306786], the viability at 28.5 h, 10 µM came out at 84.2%.
Still for that read-out and setting: then `COc1cc(CN2CCN(S(=O)(=O)c3ccc(Cl)cc3)CC2)cc(OC)c1OC` [CBK074499], with 91.3%; and `OC[C@H]1CCN(Cc2cc(Cl)ccc2OCCCn2ccnc2)C[C@H]1O` [CBK306581], with 88.4%; and `COCCCNC(=O)Cn1c(-c2cccs2)cc2cccnc21` [CBK282559], with 87.2%.
Still for that read-out and setting: for `COc1ccccc1CC(=N)NOC(=O)COc1cccc2ccccc12` [CBK263012] the value was 94.2%.
As for `Cc1cc([N+](=O)[O-])cc2c1NC(=O)C2(O)N1CCOCC1` (stereo not drawn) [CBK262475], the viability at 28.5 h, 10 µM was determined as 91.7%.
Still for that read-out and setting: then `O=C(COc1ccc(-c2cc(-c3ccccc3)c3cc(Cl)ccc3n2)cc1)N/N=C/c1ccc2ncccc2c1` [CBK263365], with 95.8%; and `COc1ccc([C@H]2CN(Cc3ccccc3)[C@@H]3CCN(C(=O)Cc4ccccc4)C[C@H]23)cc1` [CBK286285], with 108%.
Take `O=C(Cc1ccccc1)Nc1ccc2[nH]ncc2c1` [CBK288211]: the viability at 28.5 h, 10 µM is 104%.
Turning to `COc1ccc2[nH]c3c(c2c1)CCN(C(=O)CNCc1ccc(OC)c(OC)c1)C31CCN(CCOc2ccccc2)C1` (stereo not drawn) [CBK076736T], the viability at 28.5 h, 10 µM was 75%.
Still for that read-out and setting: for `O=C(Nc1ccc2c(c1)OCCO2)c1cc(S(=O)(=O)N2CCCCC2)c(Cl)cc1Cl` [CBK265790] the value was 90%.
Regarding `O=C(CSc1nnc(-c2ccco2)[nH]1)c1ccc(O)cc1O` [CBK264392], the viability at 28.5 h, 10 µM is 108%.
The same measure, in the same setting: then `O=C(O)c1cccc(NC(=S)NC(=O)C(c2ccccc2)c2ccccc2)c1` [CBK265053], with 107%.
`O=C(c1ccccc1)N1CCCC1c1n[nH]cc1-c1ccncc1` (stereo not drawn) [CBK283433]: the viability at 28.5 h, 10 µM came to 88.5%.
Still for that read-out and setting: then `O=C(CSc1cnn[nH]1)Nc1ccccc1F` [CBK269903], with 101%.
The same measure, in the same setting: for `Cc1ccc(-c2ccc(CCC(=O)O)[nH]2)cc1` [CBK264820] the value was 109%; for `Cc1cc(C)cc(NC(=O)c2ccc(CSc3nnc(N)s3)cc2)c1` [CBK266609], 85.5%; for `CCn1cc(C(=O)NC2CC3(CCCC3)Oc3ccccc32)c(C)n1` (stereo not drawn) [CBK282340], 91.2%.
Still for that read-out and setting: for `COc1ccc(-c2cc(C(=O)NCC(=O)O)c(C)o2)cc1OC` [CBK287130] the value was 86.7%; for `COc1cccc(-c2csc(NS(=O)(=O)c3ccc(C)c(C(=O)O)c3)n2)c1` [CBK299803], 99.1%.
On to `CN(C(=O)CSc1nnn(C)n1)c1ccccc1` [CBK058129], for which the viability at 28.5 h, 10 µM stood at 117%.
Still for that read-out and setting: then `OCCNc1nccnc1-c1ccoc1` [CBK036580], with 106%.
On the same count and under the same terms, for `O=C1CC(c2ccccc2)CC(NCc2ccc3c(c2)OCO3)=C1C(=S)Nc1ccccc1` (stereo not drawn) [CBK264890] the value was 94.4%; for `Cc1ccc(C(=O)C(C)OC(=O)c2ccc(NC(=O)c3ccccc3)cc2)cc1` (stereo not drawn) [CBK264302], 100%.
Consider `CCOc1ccc(/N=c2\scc(-c3ccc(OC)c(Br)c3)n2CCc2ccccc2)cc1` [CBK263654B], for which the viability at 28.5 h, 10 µM came out at 74.7%.
For the compound `O=C(CN1C(=O)c2ccccc2C1=O)Nc1sc2c(c1C(=O)NCC1CCCO1)CCC2` (stereo not drawn) [CBK265583], the viability at 28.5 h, 10 µM was 109%.
On the same count and under the same terms, for `O=C(O)c1cccc(NC(=O)c2ccc3c(c2)C(=O)N(Cc2cccnc2)C3=O)c1` [CBK265523] the value was 88.5%.
Same read-out and setting: then `CCOc1ccc(N(CC(=O)O)S(=O)(=O)c2ccc(SC)cc2)cc1` [CBK263764], with 103%; and `C[C@H]1CN2C[C@H](O)CC2CN1Cc1cccn1Cc1ccccc1F` (stereo partly drawn) [CBK285165], with 88.7%; and `Cc1ccc2nc(COC(=O)c3cc(-c4ccccc4)nn3-c3ccccc3)cc(=O)n2c1` [CBK296959], with 89.8%.
`CN(Cc1ccc(-c2ccc(S(C)(=O)=O)cc2)nc1)C1CCN(C(=O)CC(F)(F)F)CC1` [CBK164098T]: the viability at 28.5 h, 10 µM came out at 99.3%.
Consider `Cc1c(Cl)ccc2c(C(=O)NCCCn3cc(Br)cn3)cc(-c3ccncc3)nc12` [CBK267731], for which the viability at 28.5 h, 10 µM was found to be 95.1%.
With `O=[N+]([O-])c1ccc(CSc2nnc(-c3cccs3)n2Cc2ccco2)cc1` [CBK267588], the viability at 28.5 h, 10 µM turned out to be 86.6%.
Same read-out and setting: then `O=C1NC(=O)C(CC(=O)N2CCN(Cc3nc4ccccc4s3)CC2)S1` (stereo not drawn) [CBK295654], with 98.3%; and `CC(=O)C1=C(O)C(=O)N(CCC(=O)O)C1c1ccccc1` (stereo not drawn) [CBK286763], with 84.3%; and `CC(=O)Nc1ccc(-c2ccc(COC3CCN(C(=O)Cc4ccc(C#N)cc4)CC3)cc2)cc1` [CBK149225], with 91.7%.

Staying with this data set, now noted: human, hela cells, % viability, bulk resorufin, single well.
Turning to `CCN1CCN(Cc2cc(Br)c(OC)cc2OC)CC1` [CBK261566], the viability at 28.5 h, 10 µM turned out to be 103%.

For orientation: viability means a read-out of living cells in per cent, often relative to untreated cells.
